One test concerns S. aureus (ATCC 49521). As to the kind of experiment: Lysostaphin MIC assay, outgrowth of lysostaphin resistance with or without sub-MIC bacitracin or nisin. Format: cell-based. Set-up: key to growth in lysostaphin MIC assay: G = Normal growth; Blank = no growth; R = resistance outgrowth as determined by addition of 20 μg/ml lysostaphin for 4 hrs following initial overnight incubation. The following applies: for growth in lysostaphin MIC assay: replicate rows. The protocol: When lysostaphin is tested in a standard “Minimum Inhibitory Concentration” (MIC) assay, outgrowth of S. aureus is sometime observed above the MIC for almost all strains of S. aureus examined. On further testing, these outgrowth wells are found to contain lysostaphin-resistant S. aureus with MICs many dilutions above the MIC of the parental strain. […] This Example illustrates that the addition of the antibacterial agent bacitracin, eliminates lysostaphin-resistant outgrowths in vitro, and may likewise reduce or eliminate resistant outgrowths in vivo. […] Of course, nasal formulations comprising antibacterial agents above the MIC for that particular agent are also within the scope of this invention.
In this experiment a NCCLS standard MIC is conducted with the modification of adding 0.1% BSA to the assay. Rows 1-4 are lysostaphin MICs conducted in the absence of bacitracin while rows 5-8 are lysostaphin MICs conducted in the presence of bacitracin (5 μg/ml).
(§1) Lysostaphin MIC assays were conducted in the presence or absence of subinhibitory concentrations (four-fold dilution below MIC) of either bacitracin or nisin to determine if either substance prevented the outgrowth of lysostaphin resistance in these assays. This is as previously described in Example 14, above.

The test system of test [1] is S. aureus strain MBT 5040. As to the kind of experiment: MIC by microtiter dilution assay. Format: cell-based.
Description: At the same time, a Columbia agar plate containing 2% NaCl (CSA) was inoculated with S. aureus strain MBT 5040 from a frozen stock. […] The MIC of a drug for a particular bacterial strain is the minimum concentration of the drug that inhibits normal growth of that particular bacterial strain.
Any detected S. aureus after lysostaphin treatment were tested for lysostaphin resistance by microtiter dilution assay. […] Plates were prepared by making lysostaphin dilutions in cation-adjusted Mueller Hinton broth+2%NaCl and 0.1%BSA (CAMHB+). The CAMHB+2% NaCl was made first, autoclaved, and then sterile 30% BSA was added to equal 0.1% BSA concentration. BSA prevents nonspecific lysostaphin interaction with plastic. The final volume of CAMHB+ in each well was 50 μl. Dilutions were 1:2, prepared by mixing 50 μl of the previous dilution into 50 μl of fresh media. The final row on the plate was left with no lysostaphin added as a control for growth. […] Overnight cultures were diluted ˜1:1000, as determined empirically, to yield a final concentration of 5×10^5/ml by measuring the optical density at 650 nm (OD650). […] The minimal inhibitory concentration (MIC) of lysostaphin, the lowest concentration of lysostaphin that prevents normal growth, was determined by reading the OD650 on a microplate reader.
Plates were incubated at room temperature for 6 to 18 hours. The OD650 was determined.
A further test deals with SA5 USU. Put plainly: Lysostaphin MIC assay, outgrowth of lysostaphin resistance with or without sub-MIC bacitracin or nisin. Format: cell-based, S. aureus. The following applies: nisin or bacitracin at four-fold dilution below MIC. The protocol:
as §1

The next test relates to SA5 Sam. Described as above. The following applies: nisin or bacitracin at four-fold dilution below MIC. Format: cell-based, S. aureus. The protocol:
as §1

Another test concerns SA8 Sam. The description is as above. Format: cell-based, S. aureus. The following applies: nisin or bacitracin at four-fold dilution below MIC. The protocol: as §1
In another test the test system is MBT 5040 LysoR. As to the kind of experiment: MIC of lysostaphin for lysostaphin-resistant variant. Format: cell-based, S. aureus. The following applies: variant isolated in vitro.
Test [2] deals with S. aureus strain SA 3865 (mupirocin resistant). As to the kind of experiment: Cotton rat nasal colonization model, single dose of cream. Format: in vivo. The following applies: Table 6d; single dose of 0.5% lysostaphin cream.
Test [3] deals with S. aureus strain MRSA 12/12. The test is described as above. Format: in vivo. The following applies: Table 6d; single dose of 0.5% lysostaphin cream. The procedure:
To further explore the relationship between lysostaphin-resistance and nasal colonization, treatment of S. aureus strain MRSA 12/12 nasal colonization with a single dose of 0.5% lysostaphin cream was also examined. MRSA 12/12 colonized the cotton rat nares (Table 6d), and a single treatment of 0.5% lysostaphin cream also eradicated nasal colonization by this strain. Nasal supernatant from treated animals was plated on both TSA/NaCl+nafcillin and TSA/NaCl alone since when MRSA become lysostaphin-resistant they revert to MSSA (17).

The test system of another test is S. aureus MBT 5040. As to the kind of experiment: Cotton rat model, cream instilled before instillation of bacteria (blocking of colonization). Format: in vivo. The following applies: administered in a viscous formulation such as a cream. The protocol: To determine how long lysostaphin, when administered in a cream formulation, remains active in the nares, a single dose of 2% lysostaphin cream was instilled in cotton rat noses 48 hours, 24 hours, and 8 hours prior to instillation of 10^9 CFU of S. aureus MBT 5040. Control animals received control cream, without lysostaphin, 8 hours prior to receiving bacteria. Six days after introduction of the bacteria, each of the 5 animals per experimental group were sacrificed and the noses checked for S. aureus colonization.

In another test the test system is Type 5 S. aureus (MSSA). Put plainly: Cotton rat nasal colonization model, single dose of cream. Format: in vivo. The following applies: Table 6d; single dose of 0.5% lysostaphin cream. The procedure:
(§2) On the day of instillation, S. aureus MBT 5040 was harvested from the CSA plate by scraping colonies into sterile. PBS (1 ml/animal to be instilled) until the percent transmittance of the sample was approximately 10% at […] in a 10 mm path length. The bacteria were pelleted by centrifugation and then resuspended in 10 μl/animal of sterile PBS. Cotton rats were sedated with 200 μl of Ketamine (25 mg/kg), Rompun (2.5 mg/kg), and Acepromazine (2.5 mg/kg) delivered intramuscularly. Ten microliters, approximately 10^9 S. aureus CFUs per animal, of MBT 5040 in PBS was instilled in the nares using a micropipette without touching the nares. Specifically, a drop of bacterial inoculum was placed on the nostril with a micropipettor, without touching the nose. The animal's regular process of respiration then inhaled the drop into the nares. After introduction of the MBT 5040 bacteria, the cotton rats were returned to normal water, without nafcillin. Unless otherwise indicated, this method was consistently used to instill S. aureus in the nares for all examples discussed below.
(§3) Ten cotton rats were nasally instilled with MBT 5040 S. aureus. On day 4 and day 5 post-instillation, the 5 animals were treated with a 0.5% lysostaphin cream and 5 animals were treated with a cream without lysostaphin added. Cream formulations were delivered into the nares of anaesthetized cotton rats by syringe through an Angiocath™ 22 GA flexible catheter (Becton Dickinson). The catheter was inserted approximately 3 mm into each of the nares and then drawn back as the cream was delivered. The noses of the cotton rats were massaged well following cream delivery to ensure good dispersal of cream. The dose of cream delivered to the nares was approximately 30-50 μl. Due to the cream's highly viscous nature, it was difficult to precisely gauge to volume of creams delivered to the nares. Unless otherwise indicated, this method of cream delivery into the nares was used throughout the examples below.
(§4) To determine the efficacy of a single dose of 0.5% lysostaphin cream in eradicating S. aureus nasal colonization, cotton rats were instilled with either MBT 5040 (MRSA), Type 5 S. aureus (sensitive to methicillin; MSSA), or Type 8 S. aureus (MSSA). Half of the animals in each group were treated once on day 5 post-instillation with negative control cream and other half of the animals were treated on the same day with 0.5% lysostaphin cream.

The subject of the next test is Type 8 S. aureus (MSSA). The description is as above. Format: in vivo. The following applies: Table 6d; single dose of 0.5% lysostaphin cream. The procedure: as §2, §3, §4
The subject of a further test is S. aureus. Put plainly: Proteinase K neutralization of lysostaphin activity in vitro. Format: cell-based. The following applies: 10^5 S. aureus in PBS; lysostaphin 10 mcg and/or 10 mg/ml Proteinase K; 20 minutes at room temperature. The protocol:
Lysostaphin (10 mcg) was added to some samples of 10^5 S. aureus in PBS in the presence or absence of 10 mg/ml Proteinase K. The samples were incubated for 20 minutes at room temperatures and then 100 microliter aliquots were plated on blood agar.

Like-named read-outs stand apart in the source and are kept apart here. Marks after values point to notes of the source that are not given here. Where a SMILES comes first, the peptide text is derived from it.

Description for MBT 5040 LysoR: Any detected S. aureus after lysostaphin treatment were tested for lysostaphin resistance by microtiter dilution assay. Lysostaphin was resuspended in sterile PBS, aliquotted and stored at −80° C. […] Once thawed, an aliquot of lysostaphin was stored at 4° C. and used for no more than two weeks. Plates were prepared by making lysostaphin dilutions in cation-adjusted Mueller Hinton broth+2%NaCl and 0.1%BSA (CAMHB+). The CAMHB+2% NaCl was made first, autoclaved, and then sterile 30% BSA was added to equal 0.1% BSA concentration. […] The final volume of CAMHB+ in each well was 50 μl. Dilutions were 1:2, prepared by mixing 50 μl of the previous dilution into 50 μl of fresh media. The final row on the plate was left with no lysostaphin added as a control for growth. A starting concentration of 1 μg/ml lysostaphin was used as the stock concentration. […] Overnight cultures were diluted ˜1:1000, as determined empirically, to yield a final concentration of 5×10^5/ml by measuring the optical density at 650 nm (OD650). […] The minimal inhibitory concentration (MIC) of lysostaphin, the lowest concentration of lysostaphin that prevents normal growth, was determined by reading the OD650 on a microplate reader.
Plates were incubated at room temperature for 6 to 18 hours. The OD650 was determined. […]

On to `CC[C@H](C)[C@H](N)C1=N[C@H](C(=O)N[C@@H](CC(C)C)C(=O)N[C@H](CCC(=O)O)C(=O)N[C@H](C(=O)N[C@H]2CCCCNC(=O)[C@H](CC(N)=O)NC(=O)[C@@H](CC(=O)O)NC(=O)[C@H](Cc3cnc[nH]3)NC(=O)[C@@H](Cc3ccccc3)NC(=O)[C@H]([C@@H](C)CC)NC(=O)[C@@H](CCCN)NC2=O)[C@@H](C)CC)CS1` [Bacitracin, bacitracin, reference compound] (HELM PEPTIDE1{[CC[C@H](C)[C@H](N)C1=N[C@H](C(=O)[*:2])CS1].L.[dE].I.K.[NCCC[C@@H](N[*:1])C(=O)[*:2]].I.[dF].H.[dD].N}$PEPTIDE1,PEPTIDE1,5:R3-11:R2$$$V2.0), for which, in the test on S. aureus (ATCC 49521) (lysostaphin 0 ng/ml, bacitracin 5 μg/ml), the “growth in lysostaphin MIC assay” value is given as “G^”.
In the case of `COc1cccc(OC)c1C(=O)N[C@@H]1C(=O)N2[C@@H]1SC(C)(C)[C@@H]2C(=O)O` [methicillin, reference compound], the MIC in [1] (Staphylococcus aureus, MBT5040, read-out: MIC) was > 36 µg/mL.
In the case of “Lysostaphin: antibacterial endopeptidase cleaving pentaglycine bridges of staphylococcal cell walls; Ambicin L (recombinant lysostaphin) used in Examples 1-10”, the “Percentage of wells above lysostaphin MIC that have outgrowth of lysostaphin-resistance” value with SA5 USU is 14%; in the test with SA5 Sam it was 18%; with SA8 Sam, 58%; with S. aureus (ATCC 49521) (nisin or bacitracin at four-fold dilution below MIC), 31^a %. Besides, the “growth in lysostaphin MIC assay” value was “G” with S. aureus (ATCC 49521) (lysostaphin 0.25 ng/ml, no bacitracin); “G” in the test on S. aureus (ATCC 49521) (lysostaphin 0.5 ng/ml, no bacitracin); “G” in the test on S. aureus (ATCC 49521) (lysostaphin 1 ng/ml, no bacitracin); “R” in the test on S. aureus (ATCC 49521) (lysostaphin 2 ng/ml, no bacitracin); “R^3 and R^” in the test on S. aureus (ATCC 49521) (lysostaphin 4 ng/ml, no bacitracin); “R” in the test with S. aureus (ATCC 49521) (lysostaphin 8 ng/ml, no bacitracin). Moreover, the “growth in lysostaphin MIC assay” value in the test with S. aureus (ATCC 49521) (lysostaphin 16 ng/ml, no bacitracin) was “R”; with S. aureus (ATCC 49521) (lysostaphin 32 ng/ml, no bacitracin), “R”; in the test on S. aureus (ATCC 49521) (lysostaphin 125 ng/ml, no bacitracin), “R”; in the test with S. aureus (ATCC 49521) (lysostaphin 250 ng/ml, no bacitracin), “R”. Besides, the MIC in the test with MBT 5040 LysoR is > 32 µg/mL; in test [1], 0.064 µg/mL. Besides, the “Animals Colonized/Animals Tested” value (in [2]; in test [3]; in the test on Type 5 S. aureus (MSSA); in the test on Type 8 S. aureus (MSSA)) was 0/5 each time. For the same compound, the “Mean Colonization” value (in test [2]; in test [3]; in the test on Type 5 S. aureus (MSSA); with Type 8 S. aureus (MSSA)) was 0 each time. For the same compound, the “time lysostaphin remains active in the nares after administration” value with S. aureus MBT 5040 is listed as “at least 48 hours”. Also, the “CFUs Recovered” value in the test on S. aureus is given as 0 CFUs.

By MIC is commonly meant the lowest concentration that inhibits growth of the organism.

The values above are taken from patent US20030211995A1, “Methods and formulations for eradicating or alleviating staphylococcal nasal colonization using lysostaphin” (priority 2001, published 2003).
